Read-outs that look alike come from different tables or passages of the source. Each block holds one compound with its values, some of them ahead of it.
What was measured:
human TRPA1 = human TRPA1 (Homo sapiens, UniProt O75762); test: Calcium imaging of TRPA1 activation in human TRPA1 stably expressing HEK293 cells; details: for TRPA1 activation caused by antiseptics and antiseptic aids: phenoxyethanol 20 to 30 mM, IPBC 0.03 to 0.1 mM, triclosan 0.1 to 0.3 mM, benzyl alcohol 20 to 30 mM, FIG. 3
Text: (1) Preparation of Human TRPA1 Stably Expressing Cell Line
The human TRPA1 gene of which the full length is inserted into pENTR223.1 was purchased from Open Biosystems. The TRPA1 gene was sub-cloned into an expression vector pcDNA3.2-V5/DEST (Invitrogen) and transfected into HEK293 cells using Lipofectamine 2000 (Invitrogen).
(3) Evaluation of the Inhibitory Effect on TRPA1 Activation Caused by AITC

human skin = test: Sensory irritation property to antiseptic on human skin (discomfort score, sensitive women); type: in vivo; details: antiseptic solution (0.2% methylparaben + 0.35% phenoxyethanol) + 0.05% Compound 1 on face, versus antiseptic solution alone; maximum score, scale 0.0-3.0; FIG. 4
Protocol: (1) Selection of Test Subjects
To evaluate the skin sensory irritation, 22 women (age 20 to 59) having high sensitivity (1% lactic acid-sensitive, low current perception threshold and sensitive skin conscious with medical history of allergic disease) were selected as the subjects.
(2) Evaluation of Sensory Irritation Property to Antiseptic
After washing the face, the subjects entered a constant temperature-humidity room (room temperature 20° C., humidity about 50%) and were acclimated for 20 minutes, followed by applying 300 ill of distilled water heated to 37° C. in one side of the face from the cheek to the nose. 1, 2.5, 5 and 8 minutes after the application, the degree (intensity) of unpleasant sensation (pain) reported in accordance with the following unpleasant sensation reference values was notated.
0.0; None or pleasant sensation
0.5; Slight discomfort barely detectable
1.0; Mild discomfort, detectable sensation but tolerable
1.5; Mild to moderate discomfort
2.0; Moderate discomfort, unpleasant feeling but tolerable
2.5; Moderate to severe discomfort
3.0; Severe discomfort, intense unpleasant feeling
The distilled water was wiped off 8 minutes later, 300 μl of an antiseptic solution (0.2% methylparaben (MP)+0.35% phenoxyethanol (Phe) aqueous solution) was applied to the same part to notate the degrees of unpleasant sensation in the same manner. […]

[1] = Inhibitory effect on irritating odor (ammonia odor, panel evaluation); type: in vivo; details: for ammonia odor (irritating odor) score, average: 7-stage scale 0 to 6
Protocol: Ammonia was volatilized and saturated by putting a cotton ball impregnated with a 28% ammonia water (20 μl) in a 50 ml syringe for 12 hours or more. The intensity of ammonia odor (irritating odor) was evaluated using a 7-stage scale (0 to 6). Comparative evaluation was carried out without sniffing the test perfume.
(2) Evaluation scale 0; No irritating odor, 1; very faint, 2: faint, 3; easily noticeable, 4; strong, 5; very strong, 6; extremely strong

[2] = HEK293, read-out: Ratio for TRPA1 inhibition (%), 5.0 μM AITC, test material 100 μM
[3] = HEK293, read-out: Ratio for TRPA1 inhibition (%), 10 μM AITC, test material 100 μM

human TRPA1, sequence (O75762 whole entry): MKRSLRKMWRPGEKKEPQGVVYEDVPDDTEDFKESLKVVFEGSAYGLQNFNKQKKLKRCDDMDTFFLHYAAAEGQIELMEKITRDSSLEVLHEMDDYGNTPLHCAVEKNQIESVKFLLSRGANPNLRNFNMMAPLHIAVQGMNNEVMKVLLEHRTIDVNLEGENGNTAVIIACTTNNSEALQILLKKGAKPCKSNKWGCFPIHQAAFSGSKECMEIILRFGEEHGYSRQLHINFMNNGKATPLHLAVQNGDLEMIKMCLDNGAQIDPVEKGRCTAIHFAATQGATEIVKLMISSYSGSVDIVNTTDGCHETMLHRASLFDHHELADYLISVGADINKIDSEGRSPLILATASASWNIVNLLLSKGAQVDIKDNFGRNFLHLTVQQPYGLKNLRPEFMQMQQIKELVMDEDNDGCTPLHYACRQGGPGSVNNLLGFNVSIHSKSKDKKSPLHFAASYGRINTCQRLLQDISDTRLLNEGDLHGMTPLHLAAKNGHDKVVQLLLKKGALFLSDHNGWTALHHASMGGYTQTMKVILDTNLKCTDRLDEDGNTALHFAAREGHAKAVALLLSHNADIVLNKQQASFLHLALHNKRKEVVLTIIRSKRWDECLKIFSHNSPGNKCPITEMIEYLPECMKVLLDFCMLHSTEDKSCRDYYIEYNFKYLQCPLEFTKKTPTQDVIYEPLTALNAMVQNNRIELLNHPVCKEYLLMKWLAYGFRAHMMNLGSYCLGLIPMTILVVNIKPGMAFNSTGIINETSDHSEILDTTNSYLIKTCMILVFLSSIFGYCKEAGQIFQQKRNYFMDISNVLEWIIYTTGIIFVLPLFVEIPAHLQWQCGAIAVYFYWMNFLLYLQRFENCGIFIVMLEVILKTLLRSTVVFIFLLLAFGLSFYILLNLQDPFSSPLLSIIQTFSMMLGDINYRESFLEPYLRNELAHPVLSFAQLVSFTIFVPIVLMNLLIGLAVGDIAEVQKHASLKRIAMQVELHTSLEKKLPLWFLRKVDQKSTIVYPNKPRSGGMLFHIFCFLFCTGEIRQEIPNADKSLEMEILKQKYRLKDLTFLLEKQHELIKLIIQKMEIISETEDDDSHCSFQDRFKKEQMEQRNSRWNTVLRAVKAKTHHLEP

Compound: OCc1ccccc1 [benzyl alcohol, reference compound]
TRPA1 activation caused by antiseptics and antiseptic aids (human TRPA1): activate TRPA1 in a dose dependent manner

Compound: Oc1cc(Cl)ccc1Oc1ccc(Cl)cc1Cl [triclosan, reference compound]
TRPA1 activation caused by antiseptics and antiseptic aids (human TRPA1): activate TRPA1 in a dose dependent manner

Compound: CC/C(=C\C(CC)c1ccccc1)CO (stereo not drawn) [Compound 7, (E)-2-ethyl-4-phenyl-2-hexen-1-ol]
IC50 (human TRPA1): 3.4 µM
inhibition at 100 µM (human TRPA1; [2]): 103%
inhibition at 100 µM (human TRPA1; [3]): 102%

Compound: CC/C(=C/C(CC)c1ccccc1)CO (stereo not drawn) [Compound 8, (Z)-2-ethyl-4-phenyl-2-hexen-1-ol]
IC50 (human TRPA1): 2 µM
inhibition at 100 µM (human TRPA1; [2]): 102%
inhibition at 100 µM (human TRPA1; [3]): 101%

Compound: CC(CO)CC(C)c1ccccc1 (stereo not drawn) [Compound 1, 2-methyl-4-phenyl-1-pentanol]
discomfort (pain) score (human skin): reduced
ammonia odor (irritating odor) score, average ([1]; 1 minute later): 2
ammonia odor (irritating odor) score, average ([1]; 2 minutes later): 2
ammonia odor (irritating odor) score, average ([1]; 5 minutes later): 2
ammonia odor (irritating odor) score, average ([1]; 6 minutes later): 3
ammonia odor (irritating odor) score, average ([1]; 10 minutes later): 3
ammonia odor (irritating odor) score, average ([1]; Immediately after inhalation of test perfume, five panelists): 1
time the ammonia odor reducing effect was maintained after the inhalation ([1]; after 1 minute sniffing of test perfume): 5 min

Compound: d-camphor [reference compound]
Ratio for TRPA1 inhibition (%) (human TRPA1; 5.0 μM AITC, test material 100 μM): 1.8%
Ratio for TRPA1 inhibition (%) (human TRPA1; 5.0 μM AITC, test material 500 μM): 27.8%
Ratio for TRPA1 inhibition (%) (human TRPA1; 10 μM AITC, test material 100 μM): 0.0%
Ratio for TRPA1 inhibition (%) (human TRPA1; 10 μM AITC, test material 500 μM): 15.1%
Ratio for TRPA1 inhibition (%) (human TRPA1; 30 μM AITC, test material 0.01%): 6.9%
Ratio for TRPA1 inhibition (%) (human TRPA1; 30 μM AITC, test material 0.03%): 89.7%
Ratio for TRPA1 inhibition (%) (human TRPA1; stimulant Benzyl alcohol 20 mM, test material 0.5 mM): −0.89%
Ratio for TRPA1 inhibition (%) (human TRPA1; stimulant IPBC 0.03 mM, test material 0.5 mM): 32.40%
Ratio for TRPA1 inhibition (%) (human TRPA1; stimulant Phenoxyethanol 20 mM, test material 0.5 mM): 13.96%
Ratio for TRPA1 inhibition (%) (human TRPA1; stimulant Triclosan 0.1 mM, test material 0.5 mM): 27.45%

Compound: CCC(C=C(C)CO)c1ccccc1 (stereo not drawn) [Compound 5, 2-methyl-4-phenyl-2-hexen-1-ol]
inhibition at 100 µM (human TRPA1; [2]): 83.4%
inhibition at 100 µM (human TRPA1; [3]): 27.6%

Next, values leading:

inhibition at 100 µM (human TRPA1; [2]): 89.5%
inhibition at 100 µM (human TRPA1; [3]): 51.7%
Compound: CC(CO)C(C)Cc1ccccc1 (stereo not drawn) [Compound 9, 2,3-dimethyl-4-phenyl-1-butanol]

inhibition at 100 µM (human TRPA1; [2]): 18.7%
inhibition at 100 µM (human TRPA1; [3]): 9.7%
Compound: CCC(CC(C)CO)c1ccccc1 (stereo not drawn) [Compound 6, 2-methyl-4-phenyl-1-hexanol]

inhibition at 100 µM (human TRPA1; [2]): 0%
inhibition at 100 µM (human TRPA1; [3]): 0.8%
Compound: OCCCCc1ccccc1 [Comparative Compound 2, 4-phenyl-1-butanol, reference compound]

inhibition at 100 µM (human TRPA1; [3]): 0%
Compound: CC(CCCO)c1ccccc1 (stereo not drawn) [Comparative Compound 1, 4-phenyl-1-pentanol, reference compound]

IC50 (human TRPA1): 32.5 µM
inhibition at 100 µM (human TRPA1; [2]): 92.9%
inhibition at 100 µM (human TRPA1; [3]): 31.8%
Compound: C/C(=C\C(C)c1ccccc1)CO (stereo not drawn) [Compound 10, (E)-2-methyl-4-phenyl-2-penten-1-ol]

inhibition at 100 µM (human TRPA1; [2]): 19.5%
inhibition at 100 µM (human TRPA1; [3]): 3.9%
Compound: CC(CO)CCc1ccccc1 (stereo not drawn) [Compound 11, 2-methyl-4-phenyl-1-butanol]

inhibition at 100 µM (human TRPA1; [2]): 54.9%
inhibition at 100 µM (human TRPA1; [3]): 27.1%
Compound: CC(CC(C)C(C)O)c1ccccc1 (stereo not drawn) [Compound 12, 3-methyl-5-phenyl-2-hexanol]

From patent US9856196B2, “Agent for reduction of sensory irritation” (Kao Corporation, priority 2012, dated 2018)
